From PMC7252619 (PLoS ONE, 2020)
Like-named read-outs stand apart in the source and are kept apart here.

What was measured:
Experiment in all cases: Kinase activity test (ReactionBiology), % enzyme activity relative to DMSO
Type in all cases: biochemical
[1] = molecular target: T1, DAPK1 (Homo sapiens, UniProt P53355); conditions: DAPK1
T1 construct: purchased ReactionBiology

[2] = molecular target: T2, CK1d (Homo sapiens, UniProt P48730); conditions: CK1d
T2 construct: purchased ReactionBiology
T2 sequence (P48730 whole entry): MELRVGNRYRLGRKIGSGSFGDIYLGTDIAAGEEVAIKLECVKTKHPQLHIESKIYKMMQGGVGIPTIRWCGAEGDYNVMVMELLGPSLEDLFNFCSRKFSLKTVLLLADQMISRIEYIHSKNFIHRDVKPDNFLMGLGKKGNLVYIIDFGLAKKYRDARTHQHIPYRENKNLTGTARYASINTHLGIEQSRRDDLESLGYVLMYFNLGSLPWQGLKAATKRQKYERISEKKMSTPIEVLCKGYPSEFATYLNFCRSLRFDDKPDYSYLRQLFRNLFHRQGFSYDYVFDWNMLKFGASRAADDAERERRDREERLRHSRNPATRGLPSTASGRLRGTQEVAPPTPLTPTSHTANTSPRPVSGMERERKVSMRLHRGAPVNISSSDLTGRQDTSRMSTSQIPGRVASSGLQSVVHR

[3] = molecular target: VEGFR2 (Homo sapiens, UniProt P35968); design: purchased ReactionBiology; conditions: VEGFR2; for % Enzyme Activity (relative to DMSO controls), Data 1: replicate Data 1; for % Enzyme Activity (relative to DMSO controls), Data 2: replicate Data 2;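 as to all read-outs here: VEGFR2 was one member of a ten-kinase screening panel testing marketed FDA-approved drugs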
Sequence of VEGFR2 (P35968 20-1356): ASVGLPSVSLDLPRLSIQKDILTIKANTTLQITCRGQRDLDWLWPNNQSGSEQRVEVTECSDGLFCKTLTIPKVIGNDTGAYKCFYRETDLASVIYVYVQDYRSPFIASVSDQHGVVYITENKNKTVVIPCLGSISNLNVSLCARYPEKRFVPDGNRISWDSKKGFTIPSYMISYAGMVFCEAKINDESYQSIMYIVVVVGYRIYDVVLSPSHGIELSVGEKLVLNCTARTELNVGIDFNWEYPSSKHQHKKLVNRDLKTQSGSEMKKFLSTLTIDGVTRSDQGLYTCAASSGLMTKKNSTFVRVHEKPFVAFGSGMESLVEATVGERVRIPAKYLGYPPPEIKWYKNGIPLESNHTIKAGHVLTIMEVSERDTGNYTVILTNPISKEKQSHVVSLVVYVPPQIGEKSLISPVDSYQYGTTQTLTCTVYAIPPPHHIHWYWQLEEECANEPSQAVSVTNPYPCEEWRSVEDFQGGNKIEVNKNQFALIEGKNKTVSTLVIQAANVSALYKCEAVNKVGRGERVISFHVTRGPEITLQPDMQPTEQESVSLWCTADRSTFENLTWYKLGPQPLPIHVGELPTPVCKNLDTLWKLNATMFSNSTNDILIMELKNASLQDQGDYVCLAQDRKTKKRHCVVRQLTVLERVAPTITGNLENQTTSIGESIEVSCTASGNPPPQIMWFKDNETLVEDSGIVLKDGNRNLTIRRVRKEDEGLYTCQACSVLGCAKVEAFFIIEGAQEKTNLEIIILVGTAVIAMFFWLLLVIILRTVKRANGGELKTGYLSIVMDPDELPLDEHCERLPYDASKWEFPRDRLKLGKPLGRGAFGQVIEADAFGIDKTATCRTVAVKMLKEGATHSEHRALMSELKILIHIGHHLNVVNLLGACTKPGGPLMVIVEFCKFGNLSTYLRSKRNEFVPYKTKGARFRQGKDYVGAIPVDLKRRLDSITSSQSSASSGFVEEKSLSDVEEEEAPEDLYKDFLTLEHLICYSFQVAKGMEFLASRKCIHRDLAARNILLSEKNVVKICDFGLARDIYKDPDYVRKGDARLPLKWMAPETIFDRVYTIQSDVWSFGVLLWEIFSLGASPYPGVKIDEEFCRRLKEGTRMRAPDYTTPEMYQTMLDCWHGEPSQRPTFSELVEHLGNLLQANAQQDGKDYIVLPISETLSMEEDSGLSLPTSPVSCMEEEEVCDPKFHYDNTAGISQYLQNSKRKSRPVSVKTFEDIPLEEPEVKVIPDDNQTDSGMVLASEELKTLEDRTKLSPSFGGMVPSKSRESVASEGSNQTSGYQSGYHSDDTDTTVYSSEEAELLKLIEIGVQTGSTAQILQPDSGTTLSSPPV

[4] = molecular target: T3, NEK2 (Homo sapiens, UniProt P51955); conditions: NEK2;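 also: FDA-approved drugs chosen by structure-based repositioning, each screened at 10 or 1 µM for kinase activity, expressed as percent of DMSO controls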
T3 construct: purchased ReactionBiology
T3 sequence (P51955 1-445): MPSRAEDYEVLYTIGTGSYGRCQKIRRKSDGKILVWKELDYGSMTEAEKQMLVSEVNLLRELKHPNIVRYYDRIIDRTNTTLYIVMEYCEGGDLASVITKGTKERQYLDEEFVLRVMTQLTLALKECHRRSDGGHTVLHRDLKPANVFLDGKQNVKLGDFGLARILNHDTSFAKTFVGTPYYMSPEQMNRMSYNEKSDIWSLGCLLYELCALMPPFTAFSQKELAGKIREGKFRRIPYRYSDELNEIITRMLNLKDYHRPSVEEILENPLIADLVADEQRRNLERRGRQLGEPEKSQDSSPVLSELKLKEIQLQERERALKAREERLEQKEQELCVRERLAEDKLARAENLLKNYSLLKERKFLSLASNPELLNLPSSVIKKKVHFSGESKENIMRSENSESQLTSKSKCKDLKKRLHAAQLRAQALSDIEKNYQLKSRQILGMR

[5] = compound at 1 uM, average of Data 1 and Data 2
[6] = compound at 10 uM, average of Data 1 and Data 2
[7] = 1 uM, Average, read-out: % Enzyme Activity (relative to DMSO controls), Average
[8] = 1 uM, replicate Data 1, read-out: % Enzyme Activity (relative to DMSO controls), Data 1
[9] = 1 uM, replicate Data 2, read-out: % Enzyme Activity (relative to DMSO controls), Data 2
[10] = 10 uM, Average, read-out: % Enzyme Activity (relative to DMSO controls), Average
[11] = 10 uM, replicate Data 1, read-out: % Enzyme Activity (relative to DMSO controls), Data 1
[12] = 10 uM, replicate Data 2, read-out: % Enzyme Activity (relative to DMSO controls), Data 2

T1 sequence (P53355 whole entry): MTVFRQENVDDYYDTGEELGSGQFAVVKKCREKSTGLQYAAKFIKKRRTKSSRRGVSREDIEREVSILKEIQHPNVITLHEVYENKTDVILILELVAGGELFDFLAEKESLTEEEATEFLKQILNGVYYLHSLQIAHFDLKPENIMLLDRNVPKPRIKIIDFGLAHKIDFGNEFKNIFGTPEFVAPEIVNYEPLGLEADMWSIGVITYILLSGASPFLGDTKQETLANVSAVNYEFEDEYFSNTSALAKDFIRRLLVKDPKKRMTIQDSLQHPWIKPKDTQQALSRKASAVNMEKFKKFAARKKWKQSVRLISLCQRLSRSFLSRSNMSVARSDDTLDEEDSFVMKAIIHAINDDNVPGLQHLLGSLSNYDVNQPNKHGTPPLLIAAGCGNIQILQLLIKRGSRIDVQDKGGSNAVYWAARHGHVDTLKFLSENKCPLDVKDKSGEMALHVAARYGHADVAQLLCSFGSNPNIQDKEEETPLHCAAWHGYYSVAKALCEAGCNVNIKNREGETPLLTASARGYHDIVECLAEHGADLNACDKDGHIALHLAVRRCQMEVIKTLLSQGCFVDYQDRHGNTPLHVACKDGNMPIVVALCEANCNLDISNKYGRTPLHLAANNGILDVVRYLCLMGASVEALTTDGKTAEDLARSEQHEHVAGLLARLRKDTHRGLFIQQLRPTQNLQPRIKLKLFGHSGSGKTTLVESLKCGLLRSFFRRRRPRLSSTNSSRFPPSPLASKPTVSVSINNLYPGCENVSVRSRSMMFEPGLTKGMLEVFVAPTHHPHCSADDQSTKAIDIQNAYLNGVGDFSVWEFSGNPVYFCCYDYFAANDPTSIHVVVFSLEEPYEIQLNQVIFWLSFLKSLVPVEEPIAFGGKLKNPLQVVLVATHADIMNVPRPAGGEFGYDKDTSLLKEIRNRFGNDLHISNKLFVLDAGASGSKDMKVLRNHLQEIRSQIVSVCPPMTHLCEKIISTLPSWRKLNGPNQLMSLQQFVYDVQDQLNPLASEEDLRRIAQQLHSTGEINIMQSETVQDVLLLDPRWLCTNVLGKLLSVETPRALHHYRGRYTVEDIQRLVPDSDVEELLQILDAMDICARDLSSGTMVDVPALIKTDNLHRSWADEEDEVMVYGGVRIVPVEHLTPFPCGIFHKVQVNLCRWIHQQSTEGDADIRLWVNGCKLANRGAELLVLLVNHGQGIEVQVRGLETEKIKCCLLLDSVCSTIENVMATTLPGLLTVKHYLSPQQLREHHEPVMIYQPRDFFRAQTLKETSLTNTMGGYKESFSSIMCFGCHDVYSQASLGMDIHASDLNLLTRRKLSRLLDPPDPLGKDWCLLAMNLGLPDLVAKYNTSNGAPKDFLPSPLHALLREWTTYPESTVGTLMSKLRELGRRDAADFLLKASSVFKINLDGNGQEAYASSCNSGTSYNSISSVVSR

| SMILES | % Enzyme Activity (relative to DMSO controls), Average [4, 5] [%] | % Enzyme Activity (relative to DMSO controls), Data 1 ([4]; compound at 1 uM, replicate 1) [%] | % Enzyme Activity (relative to DMSO controls), Data 2 ([4]; compound at 1 uM, replicate 2) [%] | % Enzyme Activity (relative to DMSO controls), Average [4, 6] [%] | % Enzyme Activity (relative to DMSO controls), Data 1 ([4]; compound at 10 uM, replicate 1) [%] | % Enzyme Activity (relative to DMSO controls), Data 2 ([4]; compound at 10 uM, replicate 2) [%] | % Enzyme Activity (relative to DMSO controls), Average ([4]; 1 uM, Average) [%] | % Enzyme Activity (relative to DMSO controls), Data 1 ([4]; 1 uM, replicate Data 1) [%] | % Enzyme Activity (relative to DMSO controls), Data 2 ([4]; 1 uM, replicate Data 2) [%] | % Enzyme Activity (relative to DMSO controls), Average ([4]; 10 uM, Average) [%] | % Enzyme Activity (relative to DMSO controls), Data 1 ([4]; 10 uM, replicate Data 1) [%] | % Enzyme Activity (relative to DMSO controls), Data 2 ([4]; 10 uM, replicate Data 2) [%] | further results |
| --- | --- | --- | --- | --- | --- | --- | --- | --- | --- | --- | --- | --- | --- |
| CC(C)CN(C[C@@H](O)[C@H](Cc1ccccc1)NC(=O)O[C@H]1CO[C@H]2OCC[C@H]21)S(=O)(=O)c1ccc(N)cc1 [Darunavir] |  |  |  |  |  |  |  |  |  |  |  |  | % Enzyme Activity (relative to DMSO controls), Data 1 ([1]; 1 uM, replicate Data 1): 101.48%; % Enzyme Activity (relative to DMSO controls), Data 1 ([1]; 10 uM, replicate Data 1): 82.12%; % Enzyme Activity (relative to DMSO controls), Data 1 ([2]; 1 uM, replicate Data 1): 116.81%; % Enzyme Activity (relative to DMSO controls), Data 1 ([3]; 1 uM): 105.45%; % Enzyme Activity (relative to DMSO controls), Data 1 ([3]; 10 uM): 98.21% |
| c1coc(CNc2ncnc3[nH]cnc23)c1 [Kinetin] | 107.09 | 107.23 | 106.95 | 94.02 | 94.51 | 93.52 |  |  |  |  |  |  |  |
| CC(=O)OCC1=C(C(=O)O)N2C(=O)[C@@H](NC(=O)Cc3cccs3)[C@H]2SC1 [Cephalothin] | 98.03 | 94.64 | 101.41 | 78.52 | 86.91 | 70.13 |  |  |  |  |  |  |  |
| Nc1nc2[nH]cnc2c(=S)[nH]1 [Thioguanine] |  |  |  |  |  |  | 92.40 | 91.41 | 93.38 | 107.92 | 110.57 | 105.26 |  |
| OC[C@@H](O)[C@@H](O)[C@H](O)[C@H](O)CO [Mannitol] | 113.06 | 110.81 | 115.31 | 102.41 | 100.39 | 104.43 |  |  |  |  |  |  |  |
| Cc1ccc(C(=O)c2ccc(CC(=O)O)n2C)cc1 [Tolmetin] | 115.23 | 120.50 | 109.96 | 107.09 | 112.71 | 101.47 |  |  |  |  |  |  |  |
| Cc1nnc(C(C)C)n1C1C[C@H]2CC[C@@H](C1)N2CC[C@H](NC(=O)C1CCC(F)(F)CC1)c1ccccc1 (stereo in doubt) [Maraviroc] |  |  |  |  |  |  | 95.71 | 89.78 | 101.63 | 100.82 | 99.97 | 101.67 |  |
| Nc1nc2c(ncn2COC(CO)CO)c(=O)[nH]1 [Ganciclovir] | 111.12 | 112.02 | 110.21 | 89.44 | 97.24 | 81.63 |  |  |  |  |  |  |  |
| CC(=O)CCCCn1c(=O)c2c(ncn2C)n(C)c1=O [Pentoxifylline] |  |  |  |  |  |  | 90.71 | 91.06 | 90.35 | 88.11 | 86.43 | 89.78 |  |
| Nc1nc2c(ncn2COCCO)c(=O)[nH]1 [Acyclovir] |  |  |  |  |  |  | 93.64 | 83.95 | 103.33 | 100.63 | 101.40 | 99.86 |  |
| NC[C@H]1CC[C@H](C(=O)O)CC1 [Tranexamic acid] |  |  |  |  |  |  |  |  |  |  |  |  | remaining activity at 1 µM [4, 7]: 72.5%; remaining activity at 1 µM [4, 8]: 60.7%; remaining activity at 1 µM [4, 9]: 84.2%; remaining activity at 10 µM [4, 10]: 85.3%; remaining activity at 10 µM [4, 11]: 72.1%; remaining activity at 10 µM [4, 12]: 98.5% |
| Cc1nc(=O)c2cc(CN(C)c3ccc(C(=O)N[C@@H](CCC(=O)O)C(=O)O)s3)ccc2[nH]1 [Raltitrexed] |  |  |  |  |  |  | 103.04 | 108.18 | 97.89 | 95.93 | 101.42 | 90.43 | % Enzyme Activity (relative to DMSO controls), Average ([3]; 1 uM): 107.68%; % Enzyme Activity (relative to DMSO controls), Data 1 ([3]; 1 uM): 107.41%; % Enzyme Activity (relative to DMSO controls), Data 2 ([3]; 1 uM): 107.94%; % Enzyme Activity (relative to DMSO controls), Average ([3]; 10 uM): 105.59%; % Enzyme Activity (relative to DMSO controls), Data 1 ([3]; 10 uM): 105%; % Enzyme Activity (relative to DMSO controls), Data 2 ([3]; 10 uM): 106.17% |
| Cc1ccc(Cl)c(Nc2ccccc2C(=O)O)c1Cl [Meclofenamate] |  |  |  |  |  |  |  |  |  |  |  |  | % Enzyme Activity (relative to DMSO controls), Data 1 ([1]; 1 uM, replicate Data 1): 121.09%; % Enzyme Activity (relative to DMSO controls), Data 1 ([1]; 10 uM, replicate Data 1): 115.51%; % Enzyme Activity (relative to DMSO controls), Data 1 ([2]; 1 uM, replicate Data 1): 125.84%; % Enzyme Activity (relative to DMSO controls), Data 1 ([3]; 1 uM): 108.3%; % Enzyme Activity (relative to DMSO controls), Data 1 ([3]; 10 uM): 109.87% |
| O=C(O)c1cc(-c2ccc(F)cc2F)ccc1O [Diflunisal] |  |  |  |  |  |  | 92.13 | 87.06 | 97.20 | 102.79 | 100.11 | 105.46 | % Enzyme Activity (relative to DMSO controls), Average ([2]; 1 uM, Average): 189.68%; % Enzyme Activity (relative to DMSO controls), Data 1 ([2]; 1 uM, replicate Data 1): 106.89%; % Enzyme Activity (relative to DMSO controls), Data 2 ([2]; 1 uM, replicate Data 2): 272.47%; % Enzyme Activity (relative to DMSO controls), Average ([2]; 10 uM, Average): 105.59%; % Enzyme Activity (relative to DMSO controls), Data 1 ([2]; 10 uM, replicate Data 1): 104.76%; % Enzyme Activity (relative to DMSO controls), Data 2 ([2]; 10 uM, replicate Data 2): 106.42% |
| CC(C)(C)NC(=O)[C@@H]1C[C@@H]2CCCC[C@@H]2CN1C[C@@H](O)[C@H](Cc1ccccc1)NC(=O)[C@H](CC(N)=O)NC(=O)c1ccc2ccccc2n1 [Saquinavir, reference compound] |  |  |  |  |  |  |  |  |  |  |  |  | remaining activity at 1 µM [1, 7]: 87.1%; remaining activity at 1 µM [1, 8]: 88.8%; remaining activity at 1 µM [1, 9]: 85.3%; remaining activity at 10 µM [1, 10]: 27.8%; remaining activity at 10 µM [1, 11]: 27.8%; remaining activity at 10 µM [1, 12]: 27.8%; remaining activity at 1 µM ([1]; compound 1μM, relative to DMSO controls, read-out: % Enzyme activity at 1μM): 87.1%; remaining activity at 10 µM ([1]; compound 10μM, relative to DMSO controls, read-out: % Enzyme activity at 10μM): 27.8%; remaining activity at 1 µM [2, 7]: 109%; remaining activity at 1 µM [2, 8]: 107%; remaining activity at 1 µM [2, 9]: 111%; remaining activity at 10 µM [2, 10]: 121%; remaining activity at 10 µM [2, 11]: 123%; remaining activity at 10 µM [2, 12]: 119% |
